Experiment [1] deals with p53 wild type HCT116 cells. Kind of experiment: Tumor cell killing, MTS OD and Trypan blue cell count, HCT116. The settings on record: for reduction in HCT116 cell count: HCT116, added daily for three days; for reduction in cell viability as measured by MTS OD / reduction in cell number (Trypan blue cell count): HCT116, single dose, peptides 100 μg/ml, Nutlin-3 10 μg/ml; for reduction in cell viability as measured by MTS OD: after 3 days; for reduction in cell number (Trypan blue cell count): assessed after 3 days.
Protocol: (§1) Nutlin-3, a known small molecule inhibitor of the p53-MDM2 interaction, was given at 10 μg/ml as a positive control. Briefly, HCT116 cells (10,000/well) were plated overnight in McCoy's 5A modified medium (1×) supplemented with 1% pen-strep and 10% heat inactivated FBS. SW480 cells (10,000/well) were plated overnight in DMEM 1× medium, 1% pen-strep and 10% heat inactivated FBS (all reagents were from GIBCO). Cells were treated the next day with the indicated compound and then OD and cell count assessed after 3 days (left column) or peptides were added every day for three day and then OD and cell count were assessed (right column). OD was measured with the MTS kit (Cell titer 96 aqueous non-radioactive cell proliferation assay, Promega). Trypan blue incorporation was used to determine number of cells alive and dead.

A further experiment relates to p53 mutated SW480 cells. Put plainly: Tumor cell killing, MTS OD and Trypan blue cell count, SW480. The settings on record: SW480, added daily for three days.
The next experiment addresses T1, synMDM2 (Homo sapiens, UniProt Q00987).
T1 construct: synthetic MDM2—comprising amino acids 25-109 of the full length MDM2 protein; made in house; host or cells: chemical synthesis (no expression host)
Kind of experiment: Trp fluorescence spectroscopy on addition of synMDM2. The experiment is classed as binding. The source says:
Stoppin-1 was characterized using CD and fluorescence spectroscopy. […] The CD results are entirely consistent with the known structural features of BmBKTx1. As is the case with ^(15-29)p53, the only Trp residue engineered into stoppin-1 is fully solvent exposed in aqueous solution (buffer) as evidenced by the Trp fluorescence maximum (356 nm).
Stoppin-1 was derivatived by making five additional substitutions in its C-terminal region, resulting in a heavily cationic new peptide termed stoppin-2 of the following amino acid sequence: […] (SEQ ID NO:2). Specifically, Ser^18, Ser^19, Ile^23, Asn^24, and Ser^25 (BmBKTx1 numbering) were replaced with Arg, generating a miniprotein with eight cationic residues (including three existing Lys residues) clustered in the C-terminal β-hairpin region. Stoppin-2 was then chemically synthesized and oxidatively folded using procedures previously described herein. The correct folding of stoppin-2 was verified by disulfide mapping using trypsin/CNBr fragmentation coupled with LC-MS analysis. The interaction of stoppin-2 with MDM2/MDMX was characterized using fluorescence spectroscopy.

For experiment [2], the target named is T2, synMDMX (synthetic MDMX, amino acids 24-108 of the full length MDMX protein) (Homo sapiens, UniProt O15151).
T2 construct: synthetic MDMX—comprising amino acids 24-108 of the full length MDMX protein; made in house; host or cells: chemical synthesis (no expression host)
T2 sequence (O15151 24-108): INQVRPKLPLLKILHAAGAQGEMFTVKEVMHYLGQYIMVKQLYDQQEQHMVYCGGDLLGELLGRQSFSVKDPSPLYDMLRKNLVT
Put plainly: SPR-based competition binding assay, synMDMX vs immobilized 15-29p53. The settings on record: stoppin-1 relative to 15-29p53. The protocol:
Each curve is the mean of four independent measurements at 25° C. in 10 mM HEPES, 150 mM NaCl, 0.005% surfactant P20, pH 7.4. […] Specifically, ^(15-29)p53 was immobilized on a CM5 sensor chip for kinectic analysis of a fixed concentration of ^synMDM2 (50 nM) or ^synMDMX (100 nM) pre-incubated with varying concentrations of stoppin-1 at room temperature. ^(15-29)p53 was used as a control in the competition binding assay. […] To facilitate comparison, several other compounds were included in the panel: ^(15-29)p53, ^(17-28)p53, and Nutlin-3 (a racemic mixture of Nutlin-3a and Nutlin-3b).

Where a SMILES comes first, the peptide text is derived from it. Bridges are numbered along the chain shown (N, C = ends).

T1 sequence (Q00987 25-109): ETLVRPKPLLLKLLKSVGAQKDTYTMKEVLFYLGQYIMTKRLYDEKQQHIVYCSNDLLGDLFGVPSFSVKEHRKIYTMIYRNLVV
Protocol for p53 mutated SW480 cells: as §1

On to `COc1ccc(C2=N[C@@H](c3ccc(Cl)cc3)[C@@H](c3ccc(Cl)cc3)N2C(=O)N2CCNC(=O)C2)c(OC(C)C)c1` [Nutlin-3, reference compound], for which, in experiment [1], the “reduction in HCT116 cell count” value was approximately 90%, the “reduction in cell viability as measured by MTS OD” value was “reduction in HTC cell viability” and the “reduction in cell number (Trypan blue cell count)” value (from here on “reduction in cell number”) was “over 80%”. In addition, in the experiment on p53 mutated SW480 cells, the “effect against SW480” value is listed as “ineffective”.
For the compound `CC[C@H](C)[C@@H]1NC(=O)[C@@H]2CSSC[C@H](N)C(=O)N[C@@H](Cc3ccc(O)cc3)C(=O)N[C@@H](CO)C(=O)N[C@@H](Cc3ccccc3)C(=O)N[C@@H](CC(=O)O)C(=O)N[C@H]3CSSC[C@H](NC(=O)[C@H](CCCCN)NC(=O)[C@H](CO)NC(=O)[C@H](CC(N)=O)NC1=O)C(=O)N[C@@H](CCCCN)C(=O)N[C@H](C(=O)O)CSSC[C@H](NC(=O)[C@H](CCCCN)NC(=O)[C@H](Cc1c[nH]c4ccccc14)NC(=O)[C@H](CC(C)C)NC3=O)C(=O)N[C@@H](CC(C)C)C(=O)N[C@@H](C)C(=O)N[C@@H](CCSC)C(=O)NCC(=O)N[C@@H](Cc1ccccc1)C(=O)N[C@@H](CO)C(=O)N[C@@H](CO)C(=O)NCC(=O)N[C@@H](CCCCN)C(=O)N2` [stoppin-1] (H-CYSFDCLWKCLAMGFSSGKCINSKCKC-OH; disulfide 1-20, 6-25, 10-27), the “shift of Trp fluorescence maximum on addition of synMDM2 (from-to)” value at synMDM2 was 356 nm to 328 nm. The “shift of Trp fluorescence on addition of synMDM2” value on synMDM2 (from 356 nm to 328 nm) is given as 28 nm. Besides, the “reduction in cell number” value in experiment [1] is given as “minimal”. Besides, in the experiment on p53 mutated SW480 cells, the “effect against SW480” value is listed as “ineffective”. In addition, the “fold lower binding affinity for synMDMX than 15-29p53” value in experiment [2] is “approximately 4 fold”.
On to CYSFDCLWKCLAMGFRRGKCRRRKCKC [stoppin-2], for which the “shift of Trp fluorescence maximum on addition of synMDM2 (from-to)” value in the experiment with synMDM2 is reported as 356 nm to 328 nm. Also, in experiment [1], the “reduction in HCT116 cell count” value is listed as “killed the cells quantitatively”, the “reduction in cell viability as measured by MTS OD” value is on record as “reduction in HTC cell viability” and the “reduction in cell number” value is reported as approximately 70%. In addition, the “effect against SW480” value in the experiment with p53 mutated SW480 cells is “ineffective”.

The values are drawn from US8343760B2, “p53 activator peptides” (University of Maryland, Baltimore, priority 2008, dated 2013).
